A short description of this data set: in vitro. As to conditions: human, hela cells, % viability.

Take `C=CCNC1OC(CO)C(O)C(O)C1O` (centres unmarked) [CBK261357]: the viability at 28.5 h, 10 µM was 88.9%.
On the same count and under the same terms, the same measure for `O=C(c1ccc2c(c1)CCO2)N1CCC(Sc2ccc(-c3ccccc3)cc2)CC1` [CBK131953]: 94.8%; for `O=C(CC1NCCNC1=O)Nc1ccc2c(c1)OCCO2` (centres unmarked) [CBK266837]: 99.3%; for `CN(C)S(=O)(=O)Nc1ccc(Cc2ccncc2)cc1` [CBK265011]: 115%.
Still for that read-out and setting: the same measure for `CCN(Cc1cn2cccc(C(=O)OC)c2n1)CC1CCOC1` (centres unmarked) [CBK304880]: 96.6%.
On the same count and under the same terms, the same measure for `Cc1nc(-c2cccnc2)[nH]c(=O)c1CC(=O)N(C)C1CCCCC1` [CBK306310]: 88.7%; for `C[C@@H](Cn1c(C(F)(F)F)cc2cccnc21)NC(=O)C1CCC1` [CBK283230]: 109%.
Regarding `Cc1cccn2c(=O)cc(CN3CCc4nn(C)c(=O)cc4C3)nc12` [CBK305514], the viability at 28.5 h, 10 µM is 98.2%.
In the case of `Cc1ccccc1CNC(=O)CN(c1cccc(C(F)(F)F)c1)S(=O)(=O)c1ccccc1` [CBK264047], the viability at 28.5 h, 10 µM was 102%.
Same read-out and setting: the same measure for `O=C(NCc1n[nH]c(=S)n1-c1cccc(C(F)(F)F)c1)c1cccs1` [CBK067697]: 91.2%.
Still for that read-out and setting: the same measure for `COc1cc(Nc2nc(-c3c(OC)cccc3OC)cn3ccnc23)cc(OC)c1OC` [CBK037395]: 95.5%.
Same read-out and setting: for `Cn1c(NC(=O)c2ccccc2[N+](=O)[O-])cc(=O)n(C)c1=O` [CBK294417] the value was 84%.
For the compound `Cc1ccc(OCCn2cc(/C=C3/C(=O)NC(=O)N(Cc4ccco4)C3=O)c3ccccc32)cc1` [CBK263936], the viability at 28.5 h, 10 µM (bulk resorufin, single well) amounted to 92.9%.
As to `Cn1c(=O)[nH]c(=O)c2c1nc(NC1CCCCC1)n2CCCc1ccccc1` [CBK269500], the viability at 28.5 h, 10 µM amounted to 92.7%.
Still for that read-out and setting: for `CC(C)NC(=O)[C@@H]1CN(C)C[C@]12CCc1ccccc1C2=O` [CBK284764] the value was 93.8%.
For `Cc1cccc(C(=O)N2CCCC(C)C2)c1` (centres unmarked) [CBK074057], the viability at 28.5 h, 10 µM turned out to be 95.4%.
As for `COc1ccc([C@@]23CC[C@@H](NC(=O)Nc4cc(F)c(C#N)cc4F)C[C@@H]2N(C)CC3)cc1OC` [CBK073979T], the viability at 28.5 h, 10 µM came to 98.2%.
Still for that read-out and setting: the same measure for `O=C(CN1CCN(c2ccc(C(F)(F)F)cn2)CC1)Nc1ccc2c(c1)OCO2` [CBK074680]: 102%; for `C/C(=C1/SC(=S)N(CCC(=O)O)C1=O)c1ccc(O)cc1` [CBK265171]: 102%.
The same measure, in the same setting: for `O=C(Nc1ccccc1C(=O)N1CCCC1)c1cc(=O)[nH]c2ccccc12` [CBK295664] the value was 99.2%; for `O=C(CCCn1ccnc1)Nc1ccc(N2CCCCC2)c(F)c1` [CBK281385], 81.1%.
On the same count and under the same terms, the same measure for `NC(=O)CN1CCN(CCc2ccccc2)CC1` [CBK126429]: 88.4%.
With `CC(Sc1nncs1)C(=O)N1CCCc2ccccc21` (centres unmarked) [CBK304871], the viability at 28.5 h, 10 µM is 94.6%.
As to `CCN1CCC2(C/C=C/CNC(=O)c3ccccc3OCCN(C)C2=O)CC1` [CBK292061], the viability at 28.5 h, 10 µM stood at 102%.
Still for that read-out and setting: the same measure for `COc1ccc(-c2cc(C(F)(F)F)nc(SCC(=O)Nc3cccnc3)n2)cc1OC` [CBK266148]: 103%; for `O=C1NCCCC12CCN(Cc1cnc(N3CCOCC3)nc1)CC2` [CBK285528]: 111%.
On the same count and under the same terms, for `O=S(=O)(c1c(Cl)cccc1Cl)n1ccc2c(N3CCNCC3)nccc21` [CBK059060C] the value was 91.4%; for `Cc1nn(CC(=O)N2CCCCCC2)c(=O)c2cc3occc3n12` [CBK283624], 96.5%.
Still for that read-out and setting: the same measure for `Cc1ccc(C(=O)C(OC(=O)COc2ccccc2C)c2ccccc2)cc1C` (centres unmarked) [CBK265512]: 85.3%; for `CC(=O)Nc1nc(NC(C)=O)n2c(-c3ccccc3)nnc2n1` [CBK026649]: 93.7%.
On to `O=C(O)CCc1ccc(-c2cn3ccnc3c(Nc3ccc(Br)cc3)n2)cc1` [CBK038058], for which the viability at 28.5 h, 10 µM was determined as 113%.
The same measure, in the same setting: the same measure for `O=C(NCc1ccccc1)NC(=O)C1CCN(CCCOc2cccc3ccccc23)CC1` [CBK034856]: 84.6%; for `c1ccc(-c2nn3c(CN4CCOCC4)nnc3c3ccccc23)cc1` [CBK269779]: 89%; for `CCCC/C=C/c1ccc(N2CCN(CCN(C)C)CC2)nc1` [CBK036980]: 101%.
Consider `CC(=O)Nc1sc2c(c1-c1nc3ccccc3s1)CCN(C(C)C)C2` [CBK211288], for which the viability at 28.5 h, 10 µM was found to be 3.98%.
On the same count and under the same terms, the same measure for `CN1CCN(C(=O)CNS(=O)(=O)c2cc(F)c(Br)cc2F)CC1` [CBK034481]: 99.5%.
`COc1cc(Nc2cc(-c3ccco3)ncn2)cc(OC)c1OC` [CBK090706]: the viability at 28.5 h, 10 µM is 90.3%.
Take `COc1ccc(NC(=O)Nc2nn(Cc3c(F)cccc3Cl)cc2Cl)cc1OC` [CBK267019]: the viability at 28.5 h, 10 µM was 89.3%.
Same read-out and setting: for `O=C(Cc1cccc(F)c1)N1CCC(O)(c2cccnc2F)CC1` [CBK284362] the value was 90.5%.
Take `CCOC(=O)c1sc2nc(C)cc(C)c2c1N` [CBK097355]: the viability at 28.5 h, 10 µM is 82.9%.
The same measure, in the same setting: the same measure for `Cn1cc(CCO)c2ccccc21` [CBK081087]: 109%; for `COCC(=O)Nc1cc(OC)c(Cl)cc1OC` [CBK264448]: 103%; for `CN(C)CC(C)(C)CNC(=O)c1cc(C(=O)c2ccc(Cl)cc2Cl)c[nH]1` [CBK107416]: 94.8%.
For the compound `COc1ccc([C@@]23CCC(NC(=O)Nc4ccc(OCc5ccccc5)cc4)C[C@@H]2N(C)CC3)cc1OC` (some centres unmarked) [CBK047551T], the viability at 28.5 h, 10 µM came out at 105%.
As to `CCCc1n[nH]c(Cc2c(Cl)cccc2Cl)c1C(=O)OCC` [CBK113275], the viability at 28.5 h, 10 µM is 88.9%.
Still for that read-out and setting: for `CC(C)(C)OC(=O)N1CCN(S(=O)(=O)c2ccc(Br)cc2)CC1` [CBK143623] the value was 91.8%; for `Cc1ccc(S(=O)(=O)Nc2ccccc2C(=O)O)cc1[N+](=O)[O-]` [CBK042374], 84.5%; for `O=C(c1cccs1)N1CCN(Cc2cc(=O)n3ccsc3n2)CC1` [CBK305872], 119%.
On the same count and under the same terms, the same measure for `O=C(Nc1ccccc1C(=O)O)c1cc(S(=O)(=O)Nc2cccc([N+](=O)[O-])c2)ccc1Cl` [CBK263234]: 90.3%; for `NC(=O)CCNC(=O)N1CCc2ccccc2C1` [CBK155288]: 104%; for `Brc1ccc(C2(c3nnc(C4CCCO4)o3)CCOCC2)cc1` (centres unmarked) [CBK306258]: 117%.
With `CC(=O)Nc1ccc(CNC(=O)c2cccnc2O)cc1` [CBK304559], the viability at 28.5 h, 10 µM was 107%.
On to `CCn1c(CN(C)Cc2cc(C)[nH]n2)nc2ccccc21` [CBK282120], for which the viability at 28.5 h, 10 µM turned out to be 110%.
On to `N#Cc1cc2c([nH]c1=S)CCN(Cc1ccccc1)C2` [CBK288378], for which the viability at 28.5 h, 10 µM worked out at 90.3%.
The same measure, in the same setting: the same measure for `CCN(CC)C(=O)CCn1c(-c2cccnc2)cc2cccnc21` [CBK282160]: 106%; for `C=CCn1cc(CN2CCC(O)(c3ccccc3C)CC2)c(C)n1` [CBK282581]: 86.5%.
On the same count and under the same terms, for `COc1ccc([C@@]23CC/C(=N/NS(=O)(=O)c4ccc(C)cc4)C[C@@H]2N(Cc2ccccc2)CC3)cc1OC` [CBK002717] the value was 95.5%; for `CC(C)NC(=O)CN1CCN(Cc2nc(-c3cccc(Cl)c3)no2)CC1` [CBK304369], 100%; for `O=C(O)c1cccnc1SCc1cc2c(cc1Cl)OCO2` [CBK287178], 93.9%.
Consider `O=C(CCSc1ccccc1)Nc1ccc(Br)cc1F` [CBK266825], for which the viability at 28.5 h, 10 µM was determined as 101%.
On the same count and under the same terms, for `CC(C)(C)OC(=O)N1CCN(c2ccc(N)cn2)CC1` [CBK003463] the value was 95.5%; for `CC(C)c1nnc(NS(=O)(=O)c2ccc(N)cc2)s1` [CBK050163], 101%.
The same measure, in the same setting: the same measure for `CCCCC(C(=O)O)N1C(=O)c2ccccc2C1=O` (centres unmarked) [CBK287153]: 101%.
Same read-out and setting: the same measure for `Cc1ccccc1-c1nnc(SC(C)C)n1CCN(C)CC(F)(F)F` [CBK200090]: 92.3%; for `O=C(O)CNc1ccccc1C(=O)O` [CBK260902]: 120%.
Regarding `NC(=O)c1cccc(-c2nc(-c3cc4ccccc4o3)cnc2N)c1` [CBK063996], the viability at 28.5 h, 10 µM came to 94.5%.
Consider `CCOC(=O)c1cnn2c(C)cc(C)nc12` [CBK101119], for which the viability at 28.5 h, 10 µM is 103%.
On the same count and under the same terms, the same measure for `Nc1ccc2nc(-c3ccccn3)[nH]c2c1` [CBK017167]: 100%; for `Cc1ccccc1-c1nnc2n1CCCCC2` [CBK200076A]: 108%.
Same read-out and setting: the same measure for `Cc1nn(C(C)CC(=O)NCC2CCN(C(C)C)CC2)c(C)c1C` (centres unmarked) [CBK282703]: 84.2%; for `CCN(CC)C(=O)CN1CCCN(c2cc(OCCN3C(=O)CCC3=O)ncn2)CC1` [CBK083266T]: 102%.
The same measure, in the same setting: for `COc1ncc(-c2ccc(NCCn3cc[nH]c3=O)nc2)c(OC)n1` [CBK037719] the value was 88.9%; for `Cc1nc2ccc(C(=O)N3CCCCC3)cn2c1N(C)C=O` [CBK145480], 100%.
Regarding `CN1CCN(c2nc(NS(=O)(=O)c3cccc(C(F)(F)F)c3)cc3ccccc23)CC1` [CBK200013C], the viability at 28.5 h, 10 µM stood at 98.6%.
Take `COc1cccc(NC(=O)c2cc(-c3ccc(C(=O)N4CCOCC4)cc3)cnc2N)c1` [CBK160203]: the viability at 28.5 h, 10 µM worked out at 89.4%.
The same measure, in the same setting: the same measure for `COc1ccc(C)cc1S(=O)(=O)n1ccc2c(OC3CCCN(C)C3)nccc21` (centres unmarked) [CBK051582C]: 85.3%; for `CC1CCc2c(sc(NC(=O)c3ccno3)c2C(N)=O)C1` (centres unmarked) [CBK287752]: 85.4%.
Still for that read-out and setting: the same measure for `O=[N+]([O-])c1cc(/C=N/Nc2nnn[nH]2)ccc1N1CCOCC1` [CBK262199]: 99.7%.
On the same count and under the same terms, for `COc1ccc(CCNC(=O)C2CCN(S(=O)(=O)c3ccccc3)CC2)cc1` [CBK264985] the value was 95%.
In the case of `O=c1[nH]c(NCc2ccccc2)nc2c1CCCC2` [CBK307423], the viability at 28.5 h, 10 µM was found to be 89.9%.

The values above are taken from article PMC12040169 (PLOS Biology, 2025).
